Assays:
collagen IV [1] = assay: Amount of collagen IV in normal human keratinocyte culture (ELISA), soya saponins with beta-ecdysone, 48 h; assay type: cell-based; conditions: beta-ecdysone alone, same experiment
Procedure: (§1) The cultures of normal human keratinocytes (NHK) are grown from a surgical specimen of healthy skin. In the present study, the tests were carried out on a strain of cells, denoted by HK 44, originating from a facelift performed on a person.
The keratinocytes are cultured in K-SFM growth medium, which is a complete specific keratinocyte culture medium (SFM=serum free medium) complemented with EGF (epidermal growth factor) and pituitary extract, said medium being marketed by Gibco, France. The cells were subcultured once from the primary culture in one passage, denoted by P1.
The cells are inoculated in 96-well culture plates at a rate of 25,000 NHK per well in K-SFM. After 24 h of incubation, which is necessary for good adhesion of the cells, the inoculation medium is withdrawn and replaced with K-SFM diluted 50-fold in the same base medium, but devoid of EGF and pituitary extract. […]
The controls will receive the same amount of DMSO solvent as for the product tested at a final concentration of 0.1%.
The culture supernatants are recovered for carrying out an ELISA, as explained below.
The protocol for assaying the collagen IV by an ELISA method is adapted from that described by DUMAS M. et al. in Mechanisms of Ageing and Development, 1994, 73, pages 179-187. […]
(§2) The activity A of the product is expressed as a percentage and corresponds to the following formula: [formula] […]

collagen IV [2] = assay: Amount of collagen IV in normal human keratinocyte culture (ELISA), soya seed saponins, 72 h; assay type: cell-based; conditions: 10 ng/ml
Procedure: A soya seed extract commercially available under the reference SOY SELECT LOT 26040/2 from the Italian company Indena is used in this Example.
According to the marketing information, this extract contains saponins of the “soya saponin” category in a proportion of 29 to 30% by dry weight, with a predominance of group B soya sapogenols.
To validate the pertinence of the chosen experimental protocol, a series of these tests was carried out with a positive control, namely transforming growth factor beta (TGF-beta), which is known to increase the amount of collagen IV in a culture of human keratinocytes. Reference may be made to the article by Köning A. and Bruckner-Tuderman L., J. Cell. Biol., May 1992, 117(3), 679-85.
as §1
The keratinocytes are cultured in K-SFM growth medium, which is a complete specific keratinocyte culture medium (SFM=serum free medium) complemented with EGF (epidermal growth factor) and pituitary extract, said medium being marketed by Gibco, France. […]
as §2

Compound	increase in the amount of collagen IV (collagen IV [1])	Q (ng collagen IV/100 μg proteins; at 72 h) (collagen IV [2]; NHK strain HK 44)	A (%) (collagen IV [2]; vs DMSO control)
CC(C)(O)CC[C@@H](O)[C@](C)(O)[C@H]1CC[C@@]2(O)C3=CC(=O)[C@@H]4C[C@@H](O)[C@@H](O)C[C@]4(C)[C@H]3CC[C@]12C [beta-ecdysone]	No increase		
transforming growth factor beta [TGF-beta]		5.615 ± 0.595 ng collagen IV/100 μg proteins	+50%
